# Laboratory results published in ChEMBL document CHEMBL1201862, “PubChem BioAssay data set” (2004).
# The source made the active and inactive calls.
# Key:
# [1] = target: T1, Ubiquitin-conjugating enzyme E2 N (Homo sapiens, UniProt P61088); assay type: functional;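 note: Dose-response confirmation in a TR-FRET assay detecting UBC13-driven polyubiquitin chain formation, inhibition measured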
# T1 sequence (P61088 whole entry): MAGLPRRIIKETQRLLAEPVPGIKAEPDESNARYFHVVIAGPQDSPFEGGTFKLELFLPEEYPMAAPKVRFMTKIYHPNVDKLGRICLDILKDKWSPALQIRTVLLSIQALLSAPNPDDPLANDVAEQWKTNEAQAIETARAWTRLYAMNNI
# [2] = Luminescence Cell-Based Dose Confirmation HTS to Identify Inhibitors of Platelet Dense Granule Release. [Related pubchem assays: 1663 (Primary HTS), 1678 (Summary of Project)]; assay type: functional
# [3] = target: Luciferin 4-monooxygenase (Photinus pyralis, UniProt P08659); experiment: firefly luciferase enzyme inhibitors, dose response, biochemical, luminescence (AID 1891)
# [4] = inhibitors of SNCA 5'UTR-driven reporter translation, confirmation, H4 neuroglioma cells, luminescence (AID 1988); assay type: functional, cell-based
# [5] = Luminescence Cell-Based Dose Response HTS to Identify Inhibitors of 5'UTR Stem-Loop Driven Prion Protein mRNA Translation in H4 Neuroglioblastoma Cells. [Related pubchem assays: 1827 (Project Summary), 1813 (Primary HTS)]; assay type: functional
# BJ [6] = experiment: cytotoxicity toward BJ-TERT-LT-ST fibroblasts, dose response, cell-based, RAS-independent, luminescence (AID 1935); assay type: functional; conditions: Homo sapiens;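 note: BJ fibroblasts immortalized with TERT plus LT and ST oncogenes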
# [7] = inhibitors of firefly luciferase expression or activity, dose response, H4 neuroglioma cells, luminescence (AID 1990); assay type: functional, cell-based
# BJ [8] = experiment: cells; assay type: functional, cell-based; conditions: Homo sapiens
# [9] = cytotoxicity toward DRD oncogenic fibroblasts, dose response, cell-based, non-viral oncogenic, luminescence (AID 1934); assay type: functional; conditions: Homo sapiens
# BJ [10] = experiment: cytotoxicity toward BJ-TERT fibroblasts, dose response, cell-based, RAS-independent, luminescence (AID 1933); assay type: functional; conditions: Homo sapiens
# H4 = experiment: Luminescence Cell-Based Dose Response HTS to Identify Activators of 5'UTR Stem-Loop Driven Prion Protein mRNA Translation in H4 Neuroglioblastoma Cells. [Related pubchem assays: 1829 (Project Summary), 1814 (Primary HTS)]; assay type: functional; conditions: Homo sapiens
# [11] = microbe, parasite or virus in culture; assay type: functional; conditions: Mycobacterium tuberculosis
# [12] = Luminescence Cell-Based Dose Confirmation HTS to Identify Activators of 5'UTR Stem-Loop Driven Alpha-Synuclein mRNA Translation in H4 Neuroglioblastoma Cells. [Related pubchem assays: 1829 (Project Summary), 1814 (Primary HTS)]; assay type: functional
# [13] = Luminescence Cell-Based Dose Response HTS to Identify Activators of Luciferase Translation or Activity in H4 […] Cells. [Related pubchem assays: 1829 (Project Summary), 1814 (Primary HTS)]; assay type: functional
# [14] = target: T2, Polyadenylate-binding protein 1 (Homo sapiens, UniProt P11940); experiment: PABP1 MLLE–PAM2 binding inhibitor potency, dose response, biochemical, fluorescence polarization, FITC-PAM2 peptide (AID 602259); assay type: functional; conditions: read-out: IC50_Mean
# [15] = target: T2, Polyadenylate-binding protein 1; experiment: PABP1 MLLE–PAM2 interaction inhibitors, dose response, miRNA deadenylation inhibitor project, biochemical, fluorescence polarization, Cy5-PAM2 peptide, secondary (AID 602260); assay type: functional; conditions: read-out: IC50_Mean
# [16] = Luminescence Cell-Based Dose Retest to Confirm Inhibitors of Cancer Stem Cells. [Related pubchem assays (depositor defined):AID2717, AID2721]; assay type: functional; conditions: Homo sapiens
# Cytochrome P450 1A2 = target: T3, Cytochrome P450 1A2 (Homo sapiens, UniProt P05177);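 note: PubChem cytochrome P450 panel assay, CYP1A2 panel member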
# T3 sequence (P05177 whole entry): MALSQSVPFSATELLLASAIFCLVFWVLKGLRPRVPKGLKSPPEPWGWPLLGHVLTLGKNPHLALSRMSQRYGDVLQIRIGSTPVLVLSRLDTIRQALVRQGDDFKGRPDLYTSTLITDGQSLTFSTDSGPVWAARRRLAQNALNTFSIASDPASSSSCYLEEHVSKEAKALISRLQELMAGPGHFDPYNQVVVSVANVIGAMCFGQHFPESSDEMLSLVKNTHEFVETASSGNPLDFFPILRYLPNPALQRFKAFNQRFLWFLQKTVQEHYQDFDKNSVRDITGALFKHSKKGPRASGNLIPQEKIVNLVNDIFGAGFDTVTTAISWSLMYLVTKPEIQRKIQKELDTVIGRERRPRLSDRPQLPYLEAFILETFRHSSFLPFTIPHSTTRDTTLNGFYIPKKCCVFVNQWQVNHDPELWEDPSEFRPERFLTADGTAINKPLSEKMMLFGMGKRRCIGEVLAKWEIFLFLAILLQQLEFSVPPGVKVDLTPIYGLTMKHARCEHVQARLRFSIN
# [17] = target: T4, DNA repair and recombination protein RAD54-like (Homo sapiens, UniProt Q92698); experiment: inhibitors of human RAD54 branch migration, confirmation, biochemical, fluorescence, cherry-picked samples, dose series (AID 651657); assay type: functional
# T4 sequence (Q92698 whole entry): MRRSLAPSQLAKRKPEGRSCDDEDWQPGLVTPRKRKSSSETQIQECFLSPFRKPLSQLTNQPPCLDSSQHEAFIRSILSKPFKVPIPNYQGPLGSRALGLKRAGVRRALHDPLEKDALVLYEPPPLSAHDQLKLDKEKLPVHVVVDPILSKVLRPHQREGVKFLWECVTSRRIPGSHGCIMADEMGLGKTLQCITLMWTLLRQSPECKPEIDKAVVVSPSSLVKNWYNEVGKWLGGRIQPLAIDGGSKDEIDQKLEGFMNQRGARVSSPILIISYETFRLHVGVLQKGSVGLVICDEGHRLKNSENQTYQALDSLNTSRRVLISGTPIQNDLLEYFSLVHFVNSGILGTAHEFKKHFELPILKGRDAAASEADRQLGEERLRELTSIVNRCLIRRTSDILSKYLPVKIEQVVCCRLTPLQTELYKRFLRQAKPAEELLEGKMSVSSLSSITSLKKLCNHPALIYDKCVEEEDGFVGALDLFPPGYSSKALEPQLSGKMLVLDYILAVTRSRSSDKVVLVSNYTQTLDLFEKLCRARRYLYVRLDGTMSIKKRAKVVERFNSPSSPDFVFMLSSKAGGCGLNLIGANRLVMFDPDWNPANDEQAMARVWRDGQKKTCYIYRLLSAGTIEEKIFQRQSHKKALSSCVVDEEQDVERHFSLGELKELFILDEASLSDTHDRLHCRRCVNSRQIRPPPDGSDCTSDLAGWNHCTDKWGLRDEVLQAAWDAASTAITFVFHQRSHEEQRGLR
# INS1 = experiment: beta cell apoptosis inhibitors, cytokine rescue, dose response, luminescence, retest (AID 449756); assay type: functional, cell-based; conditions: Rattus norvegicus;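 note: cell death triggered by IL-1 beta plus TNF-alpha plus IFN-gamma mixture; protective hits raise ATP signal compared with cytokine alone wells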
# [18] = inhibitors of clade B AD8 Env fusion, dose response, cell-based, cherry-pick (AID 652062); assay type: functional;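 note: luciferase signal from cell-cell fusion driven by HIV-1 clade B AD8 Env; potency is for inhibitors of fusion seen as a drop in luminescence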
# Cytochrome P450 2D6 = Cytochrome P450 2D6 (Homo sapiens, UniProt P10635);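 note: CYP2D6 member of a cytochrome P450 panel assay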
# [19] = Shn3 3'UTR reporter inhibitors, dose response, cell-based, Clone20 osteoblasts, firefly luciferase, cherry-picked (AID 624132); assay type: functional;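 note: firefly luciferase luminescence from reporter carrying the Shn3 3'UTR in osteoblasts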
# [20] = control 3'UTR Renilla luciferase suppression, dose response, counter-screen for Shn3 inhibitor project, cell-based, Clone20-Shn3RL, cherry-picked (AID 624133); assay type: functional
# [21] = inhibitors of HIV Env-driven cell fusion, dose response, cherry-pick (AID 652057); assay type: functional, cell-based
# [22] = P. falciparum Dd2 growth inhibitors, dose response, SYBR Green, cherry-picked samples (AID 1159567); assay type: functional, cell-based
# Chain of Luciferin 4-monooxygenase (P08659 whole entry): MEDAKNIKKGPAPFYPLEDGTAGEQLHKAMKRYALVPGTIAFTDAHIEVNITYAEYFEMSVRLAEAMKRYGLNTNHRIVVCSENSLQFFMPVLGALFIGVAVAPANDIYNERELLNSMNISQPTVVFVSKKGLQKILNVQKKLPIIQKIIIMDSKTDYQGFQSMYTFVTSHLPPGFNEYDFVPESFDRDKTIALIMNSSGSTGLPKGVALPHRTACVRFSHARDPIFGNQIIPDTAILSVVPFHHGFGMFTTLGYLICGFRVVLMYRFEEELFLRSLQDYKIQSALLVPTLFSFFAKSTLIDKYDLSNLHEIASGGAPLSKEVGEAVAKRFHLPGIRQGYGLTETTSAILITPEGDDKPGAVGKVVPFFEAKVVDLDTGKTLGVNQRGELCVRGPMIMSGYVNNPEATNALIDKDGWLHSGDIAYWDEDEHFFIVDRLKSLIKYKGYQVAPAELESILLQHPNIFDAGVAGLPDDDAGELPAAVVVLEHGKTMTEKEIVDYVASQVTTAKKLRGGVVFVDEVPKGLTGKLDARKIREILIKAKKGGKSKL
# T2 sequence (P11940 whole entry): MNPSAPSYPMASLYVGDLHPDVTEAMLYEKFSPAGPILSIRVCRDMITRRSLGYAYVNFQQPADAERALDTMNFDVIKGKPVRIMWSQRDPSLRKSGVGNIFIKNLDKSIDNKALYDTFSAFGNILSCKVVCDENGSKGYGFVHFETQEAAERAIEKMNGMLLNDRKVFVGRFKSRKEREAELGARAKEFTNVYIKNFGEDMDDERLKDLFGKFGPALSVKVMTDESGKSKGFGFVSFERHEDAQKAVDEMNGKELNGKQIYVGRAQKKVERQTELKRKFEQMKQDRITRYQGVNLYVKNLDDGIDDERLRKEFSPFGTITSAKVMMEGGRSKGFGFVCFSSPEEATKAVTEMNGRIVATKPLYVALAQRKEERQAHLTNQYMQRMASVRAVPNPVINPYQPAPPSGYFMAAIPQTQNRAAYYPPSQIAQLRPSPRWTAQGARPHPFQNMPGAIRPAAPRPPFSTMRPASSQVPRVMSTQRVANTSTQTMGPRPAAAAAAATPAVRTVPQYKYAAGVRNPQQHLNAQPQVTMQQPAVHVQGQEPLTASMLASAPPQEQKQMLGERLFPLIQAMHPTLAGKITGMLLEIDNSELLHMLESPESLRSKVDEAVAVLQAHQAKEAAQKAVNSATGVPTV
# Chain of Cytochrome P450 2D6 (P10635 whole entry): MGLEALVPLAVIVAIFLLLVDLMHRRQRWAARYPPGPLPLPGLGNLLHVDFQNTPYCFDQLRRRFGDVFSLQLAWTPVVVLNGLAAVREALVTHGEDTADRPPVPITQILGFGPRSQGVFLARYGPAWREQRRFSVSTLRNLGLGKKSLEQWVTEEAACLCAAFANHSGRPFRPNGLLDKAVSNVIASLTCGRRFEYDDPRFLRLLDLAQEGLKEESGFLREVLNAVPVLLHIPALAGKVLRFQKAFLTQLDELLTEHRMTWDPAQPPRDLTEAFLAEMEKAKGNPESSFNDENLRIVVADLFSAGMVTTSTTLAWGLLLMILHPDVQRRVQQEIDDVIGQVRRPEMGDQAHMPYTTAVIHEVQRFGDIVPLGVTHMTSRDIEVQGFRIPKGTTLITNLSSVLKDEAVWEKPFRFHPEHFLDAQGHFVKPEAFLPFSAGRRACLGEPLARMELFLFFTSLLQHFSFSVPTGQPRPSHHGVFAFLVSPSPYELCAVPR
smiles,measurement,setting,value
CC(=O)c1cn(S(=O)(=O)c2ccccc2)c2ccccc12,IC50,[1],> 20 µM (inactive)
CCN(CC)CC(C)OC(=O)c1ccccc1Cl (stereo not given),EC50,[2],> 112 µM (not active)
same,EC50,[3],> 112 µM (not active)
CC(=O)Nc1ccc(Nc2nc(-c3c(C)nc4ccccn34)cs2)cc1,EC50,[4],0.13 µM (active)
same,EC50,[5],0.227 µM (active)
same,EC50,BJ [6],0.654 µM (inconclusive)
same,EC50,[7],> 120 µM (not active)
same,EC50,BJ [8],70.7 µM (inconclusive)
same,EC50,[9],2.86 µM (inconclusive)
same,EC50,BJ [10],2.15 µM (active)
Cc1cccc2cc(CN(CC(C)C)S(=O)(=O)c3ccccc3)c(O)nc12,EC50,[2],> 112 µM (not active)
same,EC50,[3],> 112 µM (not active)
COc1cc(/C=C2/SC(Nc3ccc(O)cc3)=NC2=O)cc(OC)c1O,IC50,[1],> 20 µM (inactive)
CC1(C)SC(=S)N(NC(=O)Nc2cccc3ccccc23)C1N(O)C(=O)Nc1ccccc1 (stereo not given),EC50,H4,> 120 µM (not active)
same,CC50,[11],36.3 µM (active)
same,EC50,[12],> 120 µM (not active)
same,EC50,[13],> 60 µM (not active)
CC(C)NS(=O)(=O)c1ccc(NC(=S)NC(=O)c2cccc([N+](=O)[O-])c2)cc1,IC50,[14],> 66 µM (inactive)
same,IC50,[15],> 66 µM (inactive)
Cc1ccn2c(NC3CCCCC3)c(-c3cccc(-c4cccc(Cl)c4)c3)nc2c1,CC50,[11],> 40 µM (active)
same,AC50,[16],2.85 µM (active)
CCOC(=O)C1C(c2ccc(OC)c(OC)c2)c2c(n[nH]c2O)CC1(C)O (stereo not given),EC50,[2],> 112 µM (not active)
same,EC50,[3],> 112 µM (not active)
CN1CCN(c2ccc([N+](=O)[O-])cc2C(=O)c2ccc(Cl)cc2)CC1,EC50,BJ [6],11 µM (inconclusive)
same,EC50,BJ [8],33.7 µM (inconclusive)
same,EC50,[9],4.22 µM (active)
same,EC50,BJ [10],5.02 µM (active)
CCOC(=O)c1c(NC(=O)c2c(C)noc2C)sc2c1CCCCC2,AC50,Cytochrome P450 1A2,5.01 µM (inconclusive)
same,EC50,[2],> 112 µM (not active)
same,EC50,[3],> 112 µM (not active)
COc1ccc(Cl)cc1C(=O)O/N=C(\N)c1ccccn1,CC50,[11],> 40 µM (active)
CCN1CCCC1CNC(=O)c1cc2c(-c3cccc(OC)c3)nn(C)c2s1 (stereo not given),AC50,[17],56.9 µM (active)
NC(=O)CN(c1ccccc1)C1SC(=O)N(Cc2ccccc2)C1=O (stereo not given),IC50,[14],> 66 µM (inactive)
same,IC50,[15],> 66 µM (inactive)
c1csc(-c2csc3ncnc(NCCCN4CCOCC4)c23)c1,AC50,INS1,9.18 µM (active)
same,AC50,[18],4.73 µM (active)
Cc1ccc(NC(S)=Nc2ccc3c[nH]nc3c2)cc1,EC50,[2],> 112 µM (not active)
same,EC50,[3],> 112 µM (not active)
COc1ccc2c3n(nc2c1)CCN=C3c1cc(Cl)c(N)c(Cl)c1,CC50,[11],35.5 µM (active)
O=C(NC(=S)Nc1cccnc1)c1cc2ccccc2o1,IC50,[14],> 66 µM (inactive)
same,IC50,[15],> 66 µM (inactive)
Oc1ccccc1-c1nc(NCCN2CCOCC2)c2ccccc2n1,AC50,[17],29.5 µM (active)
CCC(=O)N1CCN(c2ccc(NC(=S)NC(=O)c3cccc([N+](=O)[O-])c3)cc2)CC1,IC50,[14],> 66 µM (inactive)
same,IC50,[15],> 66 µM (inactive)
O=C(O)c1ccccc1SC1CC(=O)N(c2cccc3ccccc23)C1=O (stereo not given),IC50,[14],> 66 µM (inactive)
same,IC50,[15],> 66 µM (inactive)
CCOC(=O)CSc1nc2ccc(N)cc2s1,EC50,[2],> 112 µM (not active)
same,EC50,[3],> 112 µM (not active)
CCCCOc1ccc(CNn2c(C)nc3ccccc3c2=O)cc1,IC50,[1],> 20 µM (inactive)
same,AC50,Cytochrome P450 2D6,7.94 µM (inconclusive)
O=C(CSc1nccn(-c2ccc(Br)cc2)c1=O)NC1CCCC1,IC50,[14],> 66 µM (inactive)
same,IC50,[15],> 66 µM (inactive)
O[C@@H](c1cc(C(F)(F)F)nc2c(C(F)(F)F)cccc12)[C@H]1CCCCN1,CC50,[11],13.5 µM (active)
same,IC50,[1],> 20 µM (inactive)
Cc1c(C(=O)N(Cc2cccc(Br)c2)C2CCS(=O)(=O)C2)oc2ccccc12 (stereo not given),AC50,[19],35.9 µM (active)
same,AC50,[20],> 70 µM (inactive)
CCCCN1C(=N)N([C@@H](CCC)CN2CCC[C@H]2CN2C(N)=NC[C@H]2CC(C)C)C[C@H]1Cc1ccccc1,IC50,[1],> 20 µM (inactive)
C=CCn1cc(/C=N/Nc2nc3ccccc3[nH]2)c2ccccc21,EC50,[2],> 112 µM (not active)
same,EC50,[3],45.1 µM (active)
C[C@@H]1CN([C@H](C)CO)S(=O)(=O)c2ccc(-c3ccccc3)cc2O[C@@H]1CN(C)Cc1ccccc1,AC50,[21],31.8 µM (active)
C[C@H]1CN([C@@H](C)CO)C(=O)c2cc(NS(C)(=O)=O)ccc2O[C@@H]1CN(C)Cc1ccc(Cl)c(Cl)c1,AC50,[21],48.9 µM (active)
C[C@H]1CN([C@@H](C)CO)C(=O)c2c(c3ccccc3n2C)-c2ccccc2CO[C@H]1CN(C)C(=O)CCC(F)(F)F,AC50,[21],< 0.26 µM (active)
same,AC50,[18],0.411 µM (active)
COCCCn1c(-c2ccc(S(=O)(=O)N3CCOCC3)cc2)cs/c1=N/c1ccccc1,AC50,[18],15.3 µM (active)
CN(C)CC#Cc1ccc([C@H]2[C@H](CO)N3CCCCN(C(=O)CN(C)C)C[C@@H]23)cc1,AC50,[22],9.36 µM (active)
